Source: patent publication US6835382B2, “Ii peptide therapeutics to enhance antigen presentation” (University of Massachusetts, priority 1996, dated 2004)
Non-standard residues stand in square brackets, D forms with d.

Tests used:
[1] = target: T1, HLA-DR1 molecules (Homo sapiens, UniProt P01903+P01911, A100R/D57E/F55L/F60I/F76Y/I96L/L162R/M171V/P40L/Q125E/R42F/V115G/Y59C); experiment: binding of biotin-labeled hMBP(90-102) to "empty" HLA-DR1 (assay IV); conditions: Table 39; AE101 series compound 64 μM; biotin-labeled hMBP(90-102) 50 μM, 37° C., 1 h; no enhancement = 1
T1 construct: The HLA-DR alpha gene was truncated after Asn^192 to remove transmembranal and cytoplasmic regions from the protein product; A gene coding for the HLA-DR1 beta chain was truncated after position Lys^198, again to delete the transmembranal region; made in house; host or cells: insect cell line printed as HS / H5 (Invitrogen), co-infected with two baculoviruses; concentrated culture supernatant captured on 12CA5 antibody

[2] = tested on: HLA-DR1 molecules; experiment: release of biotin-labeled hMBP(90-102) from HLA-DR1 in the presence of unlabeled hMBP (assay II); type: binding, human; conditions: for Relative Release, With unlabeled hMBP(90-102), 1 μM / Relative Release, With unlabeled hMBP(90-102), 64 μM: Table 37, unlabeled hMBP(90-102) 250 μM; for Relative Release, With unlabeled hMBP(90-102), 1 μM: AE101 series compound 1 μM; for Relative Release, With unlabeled hMBP(90-102), 64 μM: AE101 series compound 64 μM
[3] = target: T2, murine E^d MHC class II allele (Mus musculus, UniProt P01904+P01915); experiment: AE101 series peptide prepulse assay, E^d allele; type: cell-based; conditions: Table 35; AE101 series peptide prepulse 64 μM; antigenic peptide 0.3 μM; supernatant dilution 1:4
T2 sequence (P01904 26-255): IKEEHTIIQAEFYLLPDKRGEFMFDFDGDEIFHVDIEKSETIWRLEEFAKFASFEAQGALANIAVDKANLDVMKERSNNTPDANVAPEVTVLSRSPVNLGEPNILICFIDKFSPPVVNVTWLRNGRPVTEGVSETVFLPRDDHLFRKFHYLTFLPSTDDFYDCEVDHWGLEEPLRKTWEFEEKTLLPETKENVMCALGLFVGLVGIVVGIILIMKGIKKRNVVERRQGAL
T2 sequence (P01915 27-264 limits assumed): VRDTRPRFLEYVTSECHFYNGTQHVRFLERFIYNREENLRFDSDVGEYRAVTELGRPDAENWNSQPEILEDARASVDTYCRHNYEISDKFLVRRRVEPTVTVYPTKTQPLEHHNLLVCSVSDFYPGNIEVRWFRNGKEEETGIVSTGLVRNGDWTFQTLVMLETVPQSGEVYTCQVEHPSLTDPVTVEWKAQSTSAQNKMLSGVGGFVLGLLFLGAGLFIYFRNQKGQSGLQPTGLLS
Method: (§1) Table 35: Activities of multiple substitution analogs of AE235, targeting the E^k and E^d allele, in an AE101 series peptide prepulse assay. In this assay the concentration of AE101 series peptides used during the prepulse was 64 μM. The concentrations of antigenic peptides were 0.3 μM for Ed and 0.4 μM for E^k. The supernatant dilutions taken into the HT-2 cell assay was 1:4 for E and 1:2 for E^k. The AE381 peptide is a head-to-tail cyclization: the amino terminal amino group is coupled through an amide linkage to the carboxyl terminal group. The AE 382 peptide is a side-to-tail cyclization: the epsilon amino group of Lys^4 is coupled through an amide linkage to the carboxyl terminal group.
(§2) AE101 series peptide prepulse assays were carried out in the E^d and E^k systems as described for simultaneous competition assays with the following modifications. Fixed APC were first incubated for 6 h at 1×10^6DMEM-5% FCS with 64 μM of each AE101 series peptide or with PBS. The APC were then washed four times with ten volumes of DMEM-5% FCS, and were cocultured with T hybridoma cells and the indicated submaximal doses of antigenic peptides used in the simultaneous competition assays. The baseline T cell response was measured by culturing T hybridoma cells with antigenic peptide and PBS-pretreated APC.

[4] = tested on: murine E^k MHC class II allele; experiment: AE101 series peptide prepulse assay, E^k allele; type: cell-based; conditions: Table 35; AE101 series peptide prepulse 64 μM; antigenic peptide 0.4 μM; supernatant dilution 1:2
Method: as §1, §2

[5] = tested on: HLA-DR1 molecules; experiment: release of biotin-labeled hMBP(90-102) from HLA-DR1 without unlabeled antigenic peptide (assay I); type: binding, human; conditions: for Relative Release, Without unlabeled hMBP(90-102), 1 μM / Relative Release, Without unlabeled hMBP(90-102), 64 μM: Table 37, no unlabeled hMBP(90-102); for Relative Release, Without unlabeled hMBP(90-102), 1 μM: AE101 series compound 1 μM; for Relative Release, Without unlabeled hMBP(90-102), 64 μM / Relative Release: AE101 series compound 64 μM; for Relative Release: Table 36, fraction of o.d. of positive control (PBS only = 1.0; negative control = 0.0)
[6] = tested on: HLA-DR1 molecules; experiment: exchange of biotinylated hMBP(90-102) into antigenic peptide-loaded HLA-DR1 (assay III); type: binding, human; conditions: Table 38; HLA-DR1 preloaded with unlabeled hMBP(90-102) 50 μM; exchange with biotin-labeled hMBP(90-102) 50 μM, 37° C., 1 h; fraction of positive control o.d.; no enhancement = 0.08

| Substance | Relative Enhancement [1] | Relative Release, With unlabeled hMBP(90-102), 1 μM [2] | Relative Release, With unlabeled hMBP(90-102), 64 μM [2] | T cell response relative to baseline with PBS-pretreated APC (NONE = 1.0), E^d [3] | T cell response relative to baseline with PBS-pretreated APC (NONE = 1.0), E^k [4] | Relative Release, Without unlabeled hMBP(90-102), 1 μM [5] | Relative Release, Without unlabeled hMBP(90-102), 64 μM [5] | Relative Binding [6] | release of biotin-labeled hMBP(90-102) from HLA-DR1 without second unlabeled antigenic peptide, in words ([5]; Table 36 (compounds tested at 64 μM)) | Relative Release [5] | release of antigenic peptide from HLA-DR1 in presence of second antigenic peptide, in words ([2]; excess second antigenic peptide) | release of hMBP(90-102) from HLA-DR1 ([5]; AE peptide at 125 nM, additional experiments) | release of biotin-labeled hMBP(90-102) (Relative Release) ([5]; AE peptide at 1 μM without unlabeled hMBP(90-102)) |
| --- | --- | --- | --- | --- | --- | --- | --- | --- | --- | --- | --- | --- | --- |
| Ac-LR L KLPK-NH2 (Ac-LRLKLPK-NH2; not fully specified; printed as Ac-LR L KLPK-NH2) [AE206] | 2.57 | 0.03 | −0.29 | 5.0 | 2.7 | 0.58 | 0.08 | −0.13 |  |  |  |  |  |
| Ac-LRMK D PK-NH2 (Ac-LRMKDPK-NH2) [AE230] |  |  |  | 0.8 | 1.6 |  |  |  |  |  |  |  |  |
| Ac-LRMK Y PK-NH2 (Ac-LRMKYPK-NH2; not fully specified; printed as Ac-LRMK Y PK-NH2) [AE235] | 0.61 | 0.48 | 0.6 | 15.6 | 2.1 | 1.05 | 0.81 | 0.15 | did not release | 0.79 |  |  |  |
| Ac-LRMKLPK-NH2 [AE114] |  |  |  | 6.0 | 2.0 |  |  |  |  |  | can catalyze the release of antigenic peptide from the antigenic peptide binding site only in the presence of excess quantities of a second antigenic peptide |  |  |
| Ac-YRMK-NH2 [AE117] |  |  |  | 4.4 | 2.3 |  |  |  |  |  |  |  |  |
| Ac-YRMKL hydrP KSAK-NH2 (Ac-YRMKL[hydrP]KSAK-NH2) [AE143] |  | 0.35 | 0.21 |  |  | 0.51 | 0.58 |  |  |  |  |  |  |
| YRMKLPKSAKPVSQMR [AE101] | 2.66 |  |  |  |  |  |  | 0.31 |  | −0.33 |  | completely release | 0.02 |
